From ChEMBL document CHEMBL1129204, “Synthesis of ribofuranosyl glycosides of echiguanines A and B, inhibitors of phosphatidylinositol 4-kinase” (Bioorg Med Chem Lett, 1996) come the findings set out here.

For assay [1], the target named is T1, Phosphatidylinositol 4-kinase, PI4K (Homo sapiens, UniProt Q9BTU6+Q8TCG2+Q9UBF8+P42356). Kind of assay: Inhibition of phosphatidylinositol 4-kinase at 100 ug/ml (weak inhibition). The assay is classed as protein assay.
Assay [2] concerns the target T1, Phosphatidylinositol 4-kinase, PI4K. Kind of assay: Inhibition of phosphatidylinositol 4-kinase. The assay is classed as protein assay.

In brackets after ≈: the same amount, converted by molar mass.

By IC50 is commonly meant the concentration at which inhibition is half-maximal. As for `N=C(N)CCNC(=O)c1cn(C2O[C@H](CO)C(O)[C@H]2O)c2nc(N)nc(O)c12` (single isomer, unassigned), in assay [1], the concentration for half-maximal inhibition (IC50) result is recorded as “weak inhibition”.

`N=C(N)CCNC(=O)c1c[nH]c2nc(N)nc(O)c12` [ECHIGUANINE A]: the IC50 in assay [2] came out at 0.03 µg/mL (≈ 0.114 µM).
